Measured values published in PMC12136037, “Type II kinase inhibitors that target Parkinson’s disease–associated LRRK2” (Science Advances, 2025).

Key:
Test in all cases: 33PanQinase kinome-wide selectivity profile (Reaction Biology)
Assay type in all cases: biochemical
350 wild-type kinases [1] = biological target: T1, 350 wild-type kinases (Homo sapiens, UniProt O14757); details: kinase CHK1, ATP 1 µM, singlicate
T1 construct: purchased Reaction Biology (assay service)
Experimental: (§1) Compound RN341 was tested at two concentrations of 1 and 10 μM against a panel of 350 wild-type kinases in the ^33PanQinase assay. The assay was performed by Reaction Biology (www.reactionbiology.com/services/kinase-assays/kinase-panel-screening/).

350 wild-type kinases [2] = biological target: T2, 350 wild-type kinases (Homo sapiens, UniProt O14965); details: kinase AuroraA, ATP 10 µM, singlicate
T2 construct: purchased Reaction Biology (assay service)
Experimental: as §1

350 wild-type kinases [3] = biological target: T3, 350 wild-type kinases (Homo sapiens, UniProt O94921); details: kinase CDK14/CycY, ATP 0,1 µM, singlicate
T3 construct: purchased Reaction Biology (assay service)
Experimental: as §1

350 wild-type kinases [4] = biological target: T4, 350 wild-type kinases (Homo sapiens, UniProt P06493); details: singlicate; for Residual activity (% of control), CDK1/CycA2: kinase CDK1/CycA2, ATP 0,3 µM; for Residual activity (% of control), CDK1/CycB1: kinase CDK1/CycB1; for Residual activity (% of control), CDK1/CycB1 / Residual activity (% of control), CDK1/CycE1: ATP 1 µM; for Residual activity (% of control), CDK1/CycE1: kinase CDK1/CycE1
T4 construct: purchased Reaction Biology (assay service)
Experimental: as §1

350 wild-type kinases [5] = biological target: T5, 350 wild-type kinases (Homo sapiens, UniProt P30530); details: kinase AXL, ATP 0,3 µM, singlicate
T5 construct: purchased Reaction Biology (assay service)
Experimental: as §1

350 wild-type kinases [6] = biological target: T6, 350 wild-type kinases (Homo sapiens, UniProt P36894); details: kinase BMPR1A, ATP 3 µM, singlicate
T6 construct: purchased Reaction Biology (assay service)
Experimental: as §1

350 wild-type kinases [7] = biological target: T7, 350 wild-type kinases (Homo sapiens, UniProt P42684); details: kinase ABL2, ATP 0,3 µM, singlicate
T7 construct: purchased Reaction Biology (assay service)
Experimental: as §1

350 wild-type kinases [8] = biological target: T8, 350 wild-type kinases (Homo sapiens, UniProt P49336); details: kinase CDK8/CycC, ATP 1 µM, singlicate
T8 construct: purchased Reaction Biology (assay service)
Experimental: as §1

350 wild-type kinases [9] = biological target: T9, 350 wild-type kinases (Homo sapiens, UniProt P49761); details: kinase CLK3, ATP 0,3 µM, singlicate
T9 construct: purchased Reaction Biology (assay service)
Experimental: as §1

350 wild-type kinases [10] = biological target: T10, 350 wild-type kinases (Homo sapiens, UniProt P51451); details: kinase BLK, ATP 0,3 µM, singlicate
T10 construct: purchased Reaction Biology (assay service)
Experimental: as §1

350 wild-type kinases [11] = biological target: T11, 350 wild-type kinases (Homo sapiens, UniProt P68400); details: kinase CK2alpha1, ATP 0,1 µM, singlicate
T11 construct: purchased Reaction Biology (assay service)
Experimental: as §1

350 wild-type kinases [12] = biological target: T12, 350 wild-type kinases (Homo sapiens, UniProt Q00535); details: singlicate; for Residual activity (% of control), CDK5/p25NCK: kinase CDK5/p25NCK, ATP 0,3 µM; for Residual activity (% of control), CDK5/p35NCK: kinase CDK5/p35NCK, ATP 0,1 µM
T12 construct: purchased Reaction Biology (assay service)
Experimental: as §1

350 wild-type kinases [13] = biological target: T13, 350 wild-type kinases (Homo sapiens, UniProt Q00536); details: kinase CDK16/CycY, ATP 0,3 µM, singlicate
T13 construct: purchased Reaction Biology (assay service)
Experimental: as §1

350 wild-type kinases [14] = biological target: T14, 350 wild-type kinases (Homo sapiens, UniProt Q07002); details: kinase CDK18/CycY, ATP 1 µM, singlicate
T14 construct: purchased Reaction Biology (assay service)
Experimental: as §1

350 wild-type kinases [15] = biological target: T15, 350 wild-type kinases (Homo sapiens, UniProt Q13554); details: kinase CAMK2B, ATP 3 µM, singlicate
T15 construct: purchased Reaction Biology (assay service)
Experimental: as §1

350 wild-type kinases [16] = biological target: T16, 350 wild-type kinases (Homo sapiens, UniProt Q13555); details: kinase CAMK2G, ATP 1 µM, singlicate
T16 construct: purchased Reaction Biology (assay service)
Experimental: as §1

350 wild-type kinases [17] = biological target: T17, 350 wild-type kinases (Homo sapiens, UniProt Q13557); details: kinase CAMK2D, ATP 1 µM, singlicate
T17 construct: purchased Reaction Biology (assay service)
Experimental: as §1

350 wild-type kinases [18] = biological target: T18, 350 wild-type kinases (Homo sapiens, UniProt Q96RR4); details: kinase CAMKK2, ATP 3 µM, singlicate
T18 construct: purchased Reaction Biology (assay service)
Experimental: as §1

350 wild-type kinases [19] = biological target: T19, 350 wild-type kinases (Homo sapiens, UniProt Q99683); details: kinase ASK1, ATP 3 µM, singlicate
T19 construct: purchased Reaction Biology (assay service)
Experimental: as §1

350 wild-type kinases [20] = biological target: T20, 350 wild-type kinases (Homo sapiens, UniProt Q9HAZ1); details: kinase CLK4, ATP 0,1 µM, singlicate
T20 construct: purchased Reaction Biology (assay service)
Experimental: as §1

350 wild-type kinases [21] = biological target: T21, 350 wild-type kinases (Homo sapiens, UniProt Q9HCP0); details: kinase CK1gamma1, ATP 0,1 µM, singlicate
T21 construct: purchased Reaction Biology (assay service)
Experimental: as §1

350 wild-type kinases [22] = biological target: T22, 350 wild-type kinases (Homo sapiens, UniProt Q9UQB9); details: kinase AuroraC, ATP 3 µM, singlicate
T22 construct: purchased Reaction Biology (assay service)
Experimental: as §1

350 wild-type kinases [23] = biological target: T23, 350 wild-type kinases (Homo sapiens, UniProt Q9UQM7); details: kinase CAMK2A, ATP 3 µM, singlicate
T23 construct: purchased Reaction Biology (assay service)
Experimental: as §1

T4 sequence (P06493 whole entry): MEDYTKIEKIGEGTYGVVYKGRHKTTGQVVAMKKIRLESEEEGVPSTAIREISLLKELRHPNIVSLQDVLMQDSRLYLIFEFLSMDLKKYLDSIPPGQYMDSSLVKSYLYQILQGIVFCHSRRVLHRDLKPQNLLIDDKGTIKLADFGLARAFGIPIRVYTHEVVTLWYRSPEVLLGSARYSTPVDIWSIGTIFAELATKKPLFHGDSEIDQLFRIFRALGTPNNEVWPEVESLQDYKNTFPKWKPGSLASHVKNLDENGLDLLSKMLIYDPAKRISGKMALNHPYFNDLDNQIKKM
T12 sequence (Q00535 whole entry): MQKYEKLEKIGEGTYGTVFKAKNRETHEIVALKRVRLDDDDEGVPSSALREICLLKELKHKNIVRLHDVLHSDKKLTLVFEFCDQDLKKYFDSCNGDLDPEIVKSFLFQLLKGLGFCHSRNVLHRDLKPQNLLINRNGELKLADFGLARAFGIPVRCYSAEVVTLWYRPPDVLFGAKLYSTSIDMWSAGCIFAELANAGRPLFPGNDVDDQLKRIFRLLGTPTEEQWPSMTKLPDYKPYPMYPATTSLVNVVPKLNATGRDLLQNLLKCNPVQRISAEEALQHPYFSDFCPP
T2 sequence (O14965 whole entry): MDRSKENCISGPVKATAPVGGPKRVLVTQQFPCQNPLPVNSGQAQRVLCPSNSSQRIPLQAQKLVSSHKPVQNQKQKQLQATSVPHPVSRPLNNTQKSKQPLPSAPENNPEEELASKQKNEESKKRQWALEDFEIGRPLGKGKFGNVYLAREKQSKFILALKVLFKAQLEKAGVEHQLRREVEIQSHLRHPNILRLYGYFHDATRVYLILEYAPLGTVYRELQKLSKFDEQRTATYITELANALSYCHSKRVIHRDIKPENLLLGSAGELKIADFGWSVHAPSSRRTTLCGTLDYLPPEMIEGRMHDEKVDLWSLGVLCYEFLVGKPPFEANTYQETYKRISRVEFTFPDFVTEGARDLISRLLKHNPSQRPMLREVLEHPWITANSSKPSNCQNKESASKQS
T11 sequence (P68400 whole entry): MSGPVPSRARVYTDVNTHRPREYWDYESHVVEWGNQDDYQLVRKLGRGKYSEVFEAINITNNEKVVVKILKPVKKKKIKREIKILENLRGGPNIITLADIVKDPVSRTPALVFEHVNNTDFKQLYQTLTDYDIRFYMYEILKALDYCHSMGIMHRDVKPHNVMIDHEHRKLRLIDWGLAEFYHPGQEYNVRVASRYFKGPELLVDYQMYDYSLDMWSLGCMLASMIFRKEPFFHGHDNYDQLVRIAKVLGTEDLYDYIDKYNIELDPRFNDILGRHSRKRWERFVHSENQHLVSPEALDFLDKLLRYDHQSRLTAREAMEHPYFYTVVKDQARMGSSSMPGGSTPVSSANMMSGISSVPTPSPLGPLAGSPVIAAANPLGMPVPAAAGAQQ
T15 sequence (Q13554 whole entry): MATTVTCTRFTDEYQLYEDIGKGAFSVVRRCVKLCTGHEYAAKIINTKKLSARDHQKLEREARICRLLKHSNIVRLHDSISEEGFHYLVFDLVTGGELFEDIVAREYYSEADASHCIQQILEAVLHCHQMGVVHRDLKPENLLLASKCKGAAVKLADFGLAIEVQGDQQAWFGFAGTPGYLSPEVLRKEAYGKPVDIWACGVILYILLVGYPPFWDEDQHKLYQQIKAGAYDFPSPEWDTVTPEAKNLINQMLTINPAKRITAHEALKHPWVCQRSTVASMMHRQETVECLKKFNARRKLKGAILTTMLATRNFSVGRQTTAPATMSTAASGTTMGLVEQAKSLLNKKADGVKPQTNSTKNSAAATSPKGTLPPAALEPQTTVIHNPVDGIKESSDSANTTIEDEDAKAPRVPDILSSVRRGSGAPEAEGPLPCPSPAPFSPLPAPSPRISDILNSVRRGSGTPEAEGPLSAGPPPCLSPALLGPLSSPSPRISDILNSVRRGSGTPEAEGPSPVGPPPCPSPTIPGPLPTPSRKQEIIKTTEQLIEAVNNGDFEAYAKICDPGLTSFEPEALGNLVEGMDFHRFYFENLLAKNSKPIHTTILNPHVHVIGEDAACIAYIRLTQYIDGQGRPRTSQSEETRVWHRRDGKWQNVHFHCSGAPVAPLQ
T14 sequence (Q07002 whole entry): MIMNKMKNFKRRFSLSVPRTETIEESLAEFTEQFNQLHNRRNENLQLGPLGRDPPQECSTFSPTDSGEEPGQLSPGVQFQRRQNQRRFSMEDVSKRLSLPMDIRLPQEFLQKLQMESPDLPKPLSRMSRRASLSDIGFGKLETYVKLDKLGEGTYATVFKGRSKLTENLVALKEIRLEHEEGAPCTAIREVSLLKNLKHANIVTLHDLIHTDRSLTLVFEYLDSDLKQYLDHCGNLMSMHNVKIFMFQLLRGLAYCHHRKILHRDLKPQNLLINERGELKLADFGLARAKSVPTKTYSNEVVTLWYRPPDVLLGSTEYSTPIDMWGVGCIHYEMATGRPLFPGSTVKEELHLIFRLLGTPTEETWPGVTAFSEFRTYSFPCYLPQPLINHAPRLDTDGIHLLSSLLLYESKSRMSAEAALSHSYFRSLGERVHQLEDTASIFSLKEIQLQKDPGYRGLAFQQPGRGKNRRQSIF
T17 sequence (Q13557 whole entry): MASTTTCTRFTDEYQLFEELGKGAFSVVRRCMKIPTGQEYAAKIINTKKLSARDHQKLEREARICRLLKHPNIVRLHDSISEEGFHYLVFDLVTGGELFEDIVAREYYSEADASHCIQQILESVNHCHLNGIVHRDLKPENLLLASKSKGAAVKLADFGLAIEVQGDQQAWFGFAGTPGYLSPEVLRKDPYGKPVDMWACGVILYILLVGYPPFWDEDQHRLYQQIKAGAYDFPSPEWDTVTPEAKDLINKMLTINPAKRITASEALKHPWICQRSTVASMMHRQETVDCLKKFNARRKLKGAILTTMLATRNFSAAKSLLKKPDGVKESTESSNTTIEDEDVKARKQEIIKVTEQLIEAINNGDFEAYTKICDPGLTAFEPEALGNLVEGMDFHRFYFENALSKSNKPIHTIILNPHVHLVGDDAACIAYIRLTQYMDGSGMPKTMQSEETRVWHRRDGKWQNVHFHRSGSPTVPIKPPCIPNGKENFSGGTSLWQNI
T16 sequence (Q13555 whole entry): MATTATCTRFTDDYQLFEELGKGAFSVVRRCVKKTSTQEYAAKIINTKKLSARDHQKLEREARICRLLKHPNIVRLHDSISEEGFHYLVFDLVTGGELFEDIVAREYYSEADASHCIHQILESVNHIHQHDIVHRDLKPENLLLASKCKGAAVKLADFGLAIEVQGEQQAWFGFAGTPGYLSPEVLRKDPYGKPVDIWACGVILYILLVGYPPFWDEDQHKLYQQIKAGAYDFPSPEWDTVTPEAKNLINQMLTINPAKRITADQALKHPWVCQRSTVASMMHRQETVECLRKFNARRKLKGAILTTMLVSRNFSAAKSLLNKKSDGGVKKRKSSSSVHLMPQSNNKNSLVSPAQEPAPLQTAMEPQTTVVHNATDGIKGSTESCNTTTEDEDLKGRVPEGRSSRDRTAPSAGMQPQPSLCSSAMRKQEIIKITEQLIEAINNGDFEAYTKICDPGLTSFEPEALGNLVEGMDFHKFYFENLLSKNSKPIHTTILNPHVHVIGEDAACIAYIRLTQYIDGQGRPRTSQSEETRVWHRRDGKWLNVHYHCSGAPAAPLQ
T23 sequence (Q9UQM7 whole entry): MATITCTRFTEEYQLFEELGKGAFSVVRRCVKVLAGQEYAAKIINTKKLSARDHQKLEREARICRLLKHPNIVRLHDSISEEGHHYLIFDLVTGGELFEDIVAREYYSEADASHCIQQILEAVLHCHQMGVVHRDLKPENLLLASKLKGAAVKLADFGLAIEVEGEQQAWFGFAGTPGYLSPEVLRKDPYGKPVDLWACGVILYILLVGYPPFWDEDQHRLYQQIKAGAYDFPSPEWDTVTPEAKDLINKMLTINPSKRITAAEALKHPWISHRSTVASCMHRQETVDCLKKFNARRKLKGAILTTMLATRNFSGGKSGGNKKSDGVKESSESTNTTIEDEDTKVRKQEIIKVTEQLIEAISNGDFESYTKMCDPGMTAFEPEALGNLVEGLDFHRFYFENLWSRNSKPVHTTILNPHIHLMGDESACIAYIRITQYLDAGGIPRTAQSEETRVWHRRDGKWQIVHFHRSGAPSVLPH
T13 sequence (Q00536 whole entry): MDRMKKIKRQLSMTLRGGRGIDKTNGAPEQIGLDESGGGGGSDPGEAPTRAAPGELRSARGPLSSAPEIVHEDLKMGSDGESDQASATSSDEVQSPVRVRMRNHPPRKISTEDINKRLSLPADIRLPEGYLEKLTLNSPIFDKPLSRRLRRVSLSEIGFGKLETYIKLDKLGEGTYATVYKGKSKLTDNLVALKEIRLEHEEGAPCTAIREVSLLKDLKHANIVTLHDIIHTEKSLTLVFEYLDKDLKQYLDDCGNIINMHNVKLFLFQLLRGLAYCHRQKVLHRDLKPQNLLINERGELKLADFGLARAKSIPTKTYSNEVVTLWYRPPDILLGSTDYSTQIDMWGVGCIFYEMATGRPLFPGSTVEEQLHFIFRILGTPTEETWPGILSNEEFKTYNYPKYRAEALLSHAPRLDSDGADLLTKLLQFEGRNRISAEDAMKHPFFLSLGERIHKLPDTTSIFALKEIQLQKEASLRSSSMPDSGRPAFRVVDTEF
T22 sequence (Q9UQB9 whole entry): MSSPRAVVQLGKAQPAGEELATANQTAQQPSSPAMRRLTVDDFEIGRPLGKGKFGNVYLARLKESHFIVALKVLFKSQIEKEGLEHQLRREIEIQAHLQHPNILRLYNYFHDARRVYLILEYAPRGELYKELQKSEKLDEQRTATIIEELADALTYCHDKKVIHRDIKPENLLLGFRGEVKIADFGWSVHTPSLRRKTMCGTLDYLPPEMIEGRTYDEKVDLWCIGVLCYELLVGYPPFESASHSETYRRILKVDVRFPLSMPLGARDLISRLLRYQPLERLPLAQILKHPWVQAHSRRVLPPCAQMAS

## CCSc1nc(NC)c2c(-c3cccc(NC(=O)Nc4cc(C(C)(C)C)nn4-c4ccc(C)cc4)c3)c[nH]c2n1 [Compound 32]
350 wild-type kinases [1]; Assay Conc. 1.0E-05 M
  Residual activity (% of control), CHK1: 72 % of control
350 wild-type kinases [1]; Assay Conc. 1.0E-06 M
  Residual activity (% of control), CHK1: 110 % of control
350 wild-type kinases [2]; Assay Conc. 1.0E-05 M
  Residual activity (% of control), AuroraA: 74 % of control
350 wild-type kinases [2]; Assay Conc. 1.0E-06 M
  Residual activity (% of control), AuroraA: 96 % of control
350 wild-type kinases [3]; Assay Conc. 1.0E-05 M
  Residual activity (% of control), CDK14/CycY: 75 % of control
350 wild-type kinases [3]; Assay Conc. 1.0E-06 M
  Residual activity (% of control), CDK14/CycY: 102 % of control
350 wild-type kinases [4]; Assay Conc. 1.0E-05 M
  Residual activity (% of control), CDK1/CycA2: 62 % of control
  Residual activity (% of control), CDK1/CycB1: 82 % of control
  Residual activity (% of control), CDK1/CycE1: 51 % of control
350 wild-type kinases [4]; Assay Conc. 1.0E-06 M
  Residual activity (% of control), CDK1/CycA2: 110 % of control
  Residual activity (% of control), CDK1/CycB1: 105 % of control
  Residual activity (% of control), CDK1/CycE1: 104 % of control
350 wild-type kinases [5]; Assay Conc. 1.0E-05 M
  Residual activity (% of control), AXL: 59 % of control
350 wild-type kinases [5]; Assay Conc. 1.0E-06 M
  Residual activity (% of control), AXL: 94 % of control
350 wild-type kinases [6]; Assay Conc. 1.0E-05 M
  Residual activity (% of control), BMPR1A: 85 % of control
350 wild-type kinases [6]; Assay Conc. 1.0E-06 M
  Residual activity (% of control), BMPR1A: 97 % of control
350 wild-type kinases [7]; Assay Conc. 1.0E-05 M
  Residual activity (% of control), ABL2: 73 % of control
350 wild-type kinases [7]; Assay Conc. 1.0E-06 M
  Residual activity (% of control), ABL2: 107 % of control
350 wild-type kinases [8]; Assay Conc. 1.0E-05 M
  Residual activity (% of control), CDK8/CycC: 36 % of control
350 wild-type kinases [8]; Assay Conc. 1.0E-06 M
  Residual activity (% of control), CDK8/CycC: 91 % of control
350 wild-type kinases [9]; Assay Conc. 1.0E-05 M
  Residual activity (% of control), CLK3: 66 % of control
350 wild-type kinases [9]; Assay Conc. 1.0E-06 M
  Residual activity (% of control), CLK3: 90 % of control
350 wild-type kinases [10]; Assay Conc. 1.0E-05 M
  Residual activity (% of control), BLK: 55 % of control
350 wild-type kinases [10]; Assay Conc. 1.0E-06 M
  Residual activity (% of control), BLK: 78 % of control
350 wild-type kinases [11]; Assay Conc. 1.0E-05 M
  Residual activity (% of control), CK2alpha1: 82 % of control
350 wild-type kinases [11]; Assay Conc. 1.0E-06 M
  Residual activity (% of control), CK2alpha1: 102 % of control
350 wild-type kinases [12]; Assay Conc. 1.0E-05 M
  Residual activity (% of control), CDK5/p25NCK: 66 % of control
  Residual activity (% of control), CDK5/p35NCK: 76 % of control
350 wild-type kinases [12]; Assay Conc. 1.0E-06 M
  Residual activity (% of control), CDK5/p25NCK: 95 % of control
  Residual activity (% of control), CDK5/p35NCK: 94 % of control
350 wild-type kinases [13]; Assay Conc. 1.0E-05 M
  Residual activity (% of control), CDK16/CycY: 88 % of control
350 wild-type kinases [13]; Assay Conc. 1.0E-06 M
  Residual activity (% of control), CDK16/CycY: 113 % of control
350 wild-type kinases [14]; Assay Conc. 1.0E-05 M
  Residual activity (% of control), CDK18/CycY: 73 % of control
350 wild-type kinases [14]; Assay Conc. 1.0E-06 M
  Residual activity (% of control), CDK18/CycY: 110 % of control
350 wild-type kinases [15]; Assay Conc. 1.0E-05 M
  Residual activity (% of control), CAMK2B: 83 % of control
350 wild-type kinases [15]; Assay Conc. 1.0E-06 M
  Residual activity (% of control), CAMK2B: 116 % of control
350 wild-type kinases [16]; Assay Conc. 1.0E-05 M
  Residual activity (% of control), CAMK2G: 122 % of control
350 wild-type kinases [16]; Assay Conc. 1.0E-06 M
  Residual activity (% of control), CAMK2G: 106 % of control
350 wild-type kinases [17]; Assay Conc. 1.0E-05 M
  Residual activity (% of control), CAMK2D: 67 % of control
350 wild-type kinases [17]; Assay Conc. 1.0E-06 M
  Residual activity (% of control), CAMK2D: 104 % of control
350 wild-type kinases [18]; Assay Conc. 1.0E-05 M
  Residual activity (% of control), CAMKK2: 85 % of control
350 wild-type kinases [18]; Assay Conc. 1.0E-06 M
  Residual activity (% of control), CAMKK2: 119 % of control
350 wild-type kinases [19]; Assay Conc. 1.0E-05 M
  Residual activity (% of control), ASK1: 71 % of control
350 wild-type kinases [19]; Assay Conc. 1.0E-06 M
  Residual activity (% of control), ASK1: 103 % of control
350 wild-type kinases [20]; Assay Conc. 1.0E-05 M
  Residual activity (% of control), CLK4: 43 % of control
350 wild-type kinases [20]; Assay Conc. 1.0E-06 M
  Residual activity (% of control), CLK4: 80 % of control
350 wild-type kinases [21]; Assay Conc. 1.0E-05 M
  Residual activity (% of control), CK1gamma1: 97 % of control
350 wild-type kinases [21]; Assay Conc. 1.0E-06 M
  Residual activity (% of control), CK1gamma1: 92 % of control
350 wild-type kinases [22]; Assay Conc. 1.0E-05 M
  Residual activity (% of control), AuroraC: 77 % of control
350 wild-type kinases [22]; Assay Conc. 1.0E-06 M
  Residual activity (% of control), AuroraC: 105 % of control
350 wild-type kinases [23]; Assay Conc. 1.0E-05 M
  Residual activity (% of control), CAMK2A: 63 % of control
350 wild-type kinases [23]; Assay Conc. 1.0E-06 M
  Residual activity (% of control), CAMK2A: 94 % of control
